Source: ChEMBL document CHEMBL5247620, “Lupane derivatives containing various aryl substituents in the position 3 have selective cytostatic effect in leukemic cancer cells including resistant phenotypes” (Eur J Med Chem, 2022)
Calls of active or inactive are those of the source. The calls are words filed in the database; no cut-off is given here.

Assays:
[1] = test system: CCRF-CEM; assay: Induction of apoptosis in human CCRF-CEM cells assessed as effect on total Rb protein level at 5 times IC50 concentration incubated for 24 hrs by western blot assay; assay type: functional, cell-based
[2] = test system: CCRF-CEM; assay: Induction of apoptosis in human CCRF-CEM cells assessed as decrease in Bcl-2 protein expression level at 5 times IC50 concentration incubated for 24 hrs by western blot assay; assay type: functional, cell-based
[3] = test system: CCRF-CEM; assay: Induction of apoptosis in human CCRF-CEM cells assessed as effect on total Rb protein level at 1 times IC50 concentration incubated for 24 hrs by western blot assay; assay type: functional, cell-based
[4] = test system: A549; assay: Cytotoxicity against human A549 cells assessed as inhibition of cell growth incubated for 72 hrs by MTS assay; assay type: functional, cell-based; details: A549, 72 h
[5] = test system: U2OS; assay: Cytotoxicity against human U2OS cells assessed as inhibition of cell growth incubated for 72 hrs by MTS assay; assay type: functional, cell-based
[6] = test system: CCRF-CEM; assay: Induction of cell cycle arrest in human CCRF-CEM cells assessed as decrease of cell population at S phase at 1 times IC50 concentration incubated for 24 to 72 hrs by propidium iodide staining based flow cytometry; assay type: functional; details: time 24-72 hrs
[7] = Cytotoxicity against human p53HCT116 cells assessed as inhibition of cell growth incubated for 72 hrs by MTS assay; assay type: functional, cell-based; details: p53HCT116, 72 h
[8] = test system: CCRF-CEM; assay: Induction of apoptosis in human CCRF-CEM cells assessed as decrease in cyclin A protein expression level at 5 times IC50 concentration incubated for 24 hrs by western blot assay; assay type: functional, cell-based
[9] = test system: CCRF-CEM; assay: Induction of apoptosis in human CCRF-CEM cells assessed as decrease in Rb phosphorylation level at Ser807/811 at 5 times IC50 concentration incubated for 24 hrs by western blot assay; assay type: functional, cell-based
[10] = test system: CCRF-CEM; assay: Cytotoxicity against human CCRF-CEM cells assessed as inhibition of cell growth incubated for 72 hrs by MTS assay; assay type: functional, cell-based
[11] = test system: CCRF-CEM; assay: Induction of apoptosis in human CCRF-CEM cells assessed as viable cells at 1 times IC50 concentration incubated for 24 hrs by annexin V FITC/propidium iodide staining based flow cytometry (reference value: 96 %); assay type: functional
[12] = test system: CCRF-CEM; assay: Induction of apoptosis in human CCRF-CEM cells assessed as decrease in Rb phosphorylation level at Ser780 at 5 times IC50 concentration incubated for 24 hrs by western blot assay; assay type: functional, cell-based
[13] = Microsomal stability in human liver microsome as compound remaining at 2 uM measured after 30 mins in presence of NADPH by RF-MS analysis; assay type: ADME; details: liver microsomes, read-out: Stability
[14] = Chemical stability of the compound in PBS buffer assessed as compound remaining at pH 7.4 at 2 uM measured after 60 mins by RF-MS analysis; assay type: physicochemical; details: read-out: Stability
[15] = Plasma stability in human assessed as compound remaining at 2 uM measured after 120 mins by RF-MS analysis; assay type: ADME, cell-free; details: read-out: Stability
[16] = test system: CCRF-CEM; assay: Induction of apoptosis in human CCRF-CEM cells assessed as early apoptotic cells at 1 times IC50 concentration incubated for 24 hrs by annexin V FITC/propidium iodide staining based flow cytometry (reference value: 2.6 %); assay type: functional
[17] = test system: CCRF-CEM; assay: Induction of cell cycle arrest in human CCRF-CEM cells assessed as accumulation of cells at G1 phase at 1 times IC50 concentration incubated for 24 to 72 hrs by propidium iodide staining based flow cytometry; assay type: functional; details: time 24-72 hrs
[18] = test system: CEM-DNR; assay: Cytotoxicity against human CEM-DNR cells assessed as inhibition of cell growth incubated for 72 hrs by MTS assay; assay type: functional, cell-based
[19] = test system: CCRF-CEM; assay: Induction of apoptosis in human CCRF-CEM cells assessed as early apoptotic cells at 5 times IC50 concentration incubated for 24 hrs by annexin V FITC/propidium iodide staining based flow cytometry (reference value: 2.6 %); assay type: functional
[20] = Chemical stability of the compound in PBS buffer assessed as compound remaining at pH 7.4 at 2 uM measured after 30 mins by RF-MS analysis; assay type: physicochemical; details: read-out: Stability
[21] = Efflux ratio of apparent permeability from basolateral to apical side over apical to basolateral side in dog MDCK-MDR1 cells incubated for 1 hr by high-throughput spectrometric analysis; assay type: ADME, cell-based, Canis lupus familiaris
[22] = Apparent permeability across apical to basolateral side in dog MDCK-MDR1 cells assessed as drug recovery incubated for 1 hr by high-throughput spectrometric analysis; assay type: ADME, cell-based, Canis lupus familiaris; details: read-out: Drug recovery
[23] = test system: CCRF-CEM; assay: Induction of cell cycle arrest in human CCRF-CEM cells assessed as accumulation of cells at G1 phase at 5 times IC50 concentration incubated for 24 to 72 hrs by propidium iodide staining based flow cytometry; assay type: functional; details: time 24-72 hrs
[24] = test system: CCRF-CEM; assay: Induction of apoptosis in human CCRF-CEM cells assessed as late apoptotic cells at 1 times IC50 concentration incubated for 24 hrs by annexin V FITC/propidium iodide staining based flow cytometry (reference value: 1.4 %); assay type: functional
[25] = Apparent permeability across apical to basolateral side in human Caco-2 cells incubated for 2 hr by high-throughput spectrometric analysis; assay type: ADME, cell-based
[26] = Cytotoxicity against human MRC5 cells assessed as inhibition of cell growth incubated for 72 hrs by MTS assay; assay type: toxicity, cell-based
[27] = Plasma protein binding in human assessed as fraction bound at 10 uM incubated for 4 hrs by rapid equilibrium dialysis based RF-MS analysis; assay type: ADME, cell-free; details: read-out: PPB (converted)
[28] = test system: HCT-116; assay: Cytotoxicity against human HCT-116 cells assessed as inhibition of cell growth incubated for 72 hrs by MTS assay; assay type: functional, cell-based; details: HCT-116, 72 h
[29] = Microsomal stability in human liver microsome as compound remaining at 2 uM measured after 60 mins in presence of NADPH by RF-MS analysis; assay type: ADME; details: liver microsomes, read-out: Stability
[30] = Microsomal stability in human liver microsome as compound remaining at 2 uM measured after 15 mins in presence of NADPH by RF-MS analysis; assay type: ADME; details: liver microsomes, read-out: Stability
[31] = Chemical stability of the compound in PBS buffer assessed as compound remaining at pH 7.4 at 2 uM measured after 15 mins by RF-MS analysis; assay type: physicochemical; details: read-out: Stability
[32] = Plasma stability in human assessed as compound remaining at 2 uM measured after 60 mins by RF-MS analysis; assay type: ADME, cell-free; details: read-out: Stability
[33] = test system: CCRF-CEM; assay: Induction of cell cycle arrest in human CCRF-CEM cells assessed as decrease of cell population at S phase at 5 times IC50 concentration incubated for 24 to 72 hrs by propidium iodide staining based flow cytometry; assay type: functional; details: time 24-72 hrs
[34] = test system: CCRF-CEM; assay: Induction of apoptosis in human CCRF-CEM cells assessed as decrease in cell number at 1 times IC50 concentration incubated for 24 to 74 hrs by annexin V FITC/propidium iodide staining based flow cytometry; assay type: functional; details: time 24-74 hrs
[35] = Apparent permeability across apical to basolateral side in dog MDCK-MDR1 cells incubated for 1 hr by high-throughput spectrometric analysis; assay type: ADME, cell-based, Canis lupus familiaris
[36] = Cytotoxicity against human BJ cells assessed as inhibition of cell growth incubated for 72 hrs by MTS assay; assay type: toxicity, cell-based
[37] = Cytotoxicity against human K562-Tax cells assessed as inhibition of cell growth incubated for 72 hrs by MTS assay; assay type: functional, cell-based
[38] = Plasma stability in human assessed as compound remaining at 2 uM measured after 15 mins by RF-MS analysis; assay type: ADME, cell-free; details: read-out: Stability
[39] = test system: CCRF-CEM; assay: Induction of apoptosis in human CCRF-CEM cells assessed as viable cells at 5 times IC50 concentration incubated for 24 hrs by annexin V FITC/propidium iodide staining based flow cytometry (reference value: 96 %); assay type: functional
[40] = Apparent permeability across apical to basolateral side in human Caco-2 cells assessed as drug recovery incubated for 2 hr by high-throughput spectrometric analysis; assay type: ADME, cell-based; details: read-out: Drug recovery
[41] = Plasma stability in human assessed as compound remaining at 2 uM measured after 30 mins by RF-MS analysis; assay type: ADME, cell-free; details: read-out: Stability
[42] = test system: K562; assay: Cytotoxicity against human K562 cells assessed as inhibition of cell growth incubated for 72 hrs by MTS assay; assay type: functional, cell-based; details: K562, 72 h
[43] = test system: CCRF-CEM; assay: Induction of apoptosis in human CCRF-CEM cells assessed as decrease in cell number at 5 times IC50 concentration incubated for 24 to 74 hrs by annexin V FITC/propidium iodide staining based flow cytometry; assay type: functional; details: time 24-74 hrs
[44] = Efflux ratio of apparent permeability from basolateral to apical side over apical to basolateral side in human Caco-2 cells incubated for 2 hr by high-throughput spectrometric analysis; assay type: ADME, cell-based
[45] = test system: CCRF-CEM; assay: Induction of apoptosis in human CCRF-CEM cells assessed as late apoptotic cells at 5 times IC50 concentration incubated for 24 hrs by annexin V FITC/propidium iodide staining based flow cytometry (reference value: 1.4 %); assay type: functional
[46] = Chemical stability of the compound in PBS buffer assessed as compound remaining at pH 7.4 at 2 uM measured after 120 mins by RF-MS analysis; assay type: physicochemical; details: read-out: Stability

For `C=C(C)[C@@H]1CC[C@]2(C(=O)O)CC[C@]3(C)[C@H](CC[C@@H]4[C@@]5(C)CC=C(c6cccc(N)c6)C(C)(C)[C@@H]5CC[C@]43C)[C@@H]12`, the Activity [1] was “inactive”, the Activity [2] was “Active” and the Activity [3] was “inactive”. The IC50 [4] was 9.7 µM, the IC50 [5] was 31 µM and the Activity [6] was “Active”. For the same molecule, the IC50 [7] was 10 µM, the Activity [8] was “Active” and the Activity [9] was “Active”. For the same molecule, the IC50 [10] was 1800 nM, the Activity [11] was 95.2% and the Activity [12] was “Active”. The remaining at 0.5 h, 2 µM [13] was 107%, the remaining at 1 h, 2 µM [14] was 91.8% and the remaining at 2 h, 2 µM [15] was 71.5%. For the same molecule, the Activity [16] was 3.3%, the Activity [17] was “Active” and the IC50 [18] was 8.9 µM. For the same molecule, the Activity [19] was 3.4%, the remaining at 0.5 h, 2 µM [20] was 91.7% and the efflux ratio at 1 h [21] was 7.23. For the same molecule, the recovery at 1 h [22] was 31.5%, the Activity [23] was “Active” and the Activity [24] was 1.5%. The Papp A→B at 2 h [25] was 0.053 ×10⁻⁶ cm/s, the IC50 at 72 h [26] was 47 µM and the fraction unbound at 4 h, 10 µM [27] was 0.502. It also gave an IC50 [28] of 12 µM, a remaining at 1 h, 2 µM [29] of 94.8% and a remaining at 0.25 h, 2 µM [30] of 108%. For the same molecule, the remaining at 0.25 h, 2 µM [31] was 95.5%, the remaining at 1 h, 2 µM [32] was 82.5% and the Activity [33] was “Active”. For the same molecule, the Activity [34] was “Active”, the Papp A→B at 1 h [35] was 1.73 ×10⁻⁶ cm/s and the IC50 at 72 h [36] was 50 µM. The IC50 [37] was 9 µM, the remaining at 0.25 h, 2 µM [38] was 97.7% and the Activity [39] was 94.8%. The recovery at 2 h [40] was 106%, the remaining at 0.5 h, 2 µM [41] was 88.7% and the IC50 [42] was 36 µM. The Activity [43] was “Active”, the efflux ratio at 2 h [44] was 3.92 and the Activity [45] was 1.8%. For the same molecule, the remaining at 2 h, 2 µM [46] was 96.7%.
In the case of `C=C(C)[C@@H]1CC[C@]2(C(=O)O)CC[C@]3(C)[C@H](CC[C@@H]4[C@@]5(C)CC=C(c6ccc(O)cc6)C(C)(C)[C@@H]5CC[C@]43C)[C@@H]12`, the Activity [1] is reported as “inactive”, the Activity [3] is reported as “inactive” and the IC50 [4] is reported as 6.2 µM. For the same molecule, the IC50 [5] was 11 µM, the Activity [6] was “Active” and the IC50 [7] was 6.4 µM. The IC50 [10] was 690 nM, the Activity [11] was 95% and the remaining at 0.5 h, 2 µM [13] was 93.2%. It also gave a remaining at 1 h, 2 µM [14] of 94%, a remaining at 2 h, 2 µM [15] of 74.4% and an Activity [16] of 3.4%. For the same molecule, the Activity [17] was “Active”, the IC50 [18] was 3.3 µM and the Activity [19] was 3.9%. For the same molecule, the remaining at 0.5 h, 2 µM [20] was 98.7%, the efflux ratio at 1 h [21] was 2.05 and the recovery at 1 h [22] was 55.9%. The Activity [23] was “Active”, the Activity [24] was 1.6% and the Papp A→B at 2 h [25] was 1.69 ×10⁻⁶ cm/s. For the same molecule, the IC50 at 72 h [26] was 27 µM, the fraction unbound at 4 h, 10 µM [27] was 0.242 and the IC50 [28] was 7.4 µM. It also gave a remaining at 1 h, 2 µM [29] of 92.9%, a remaining at 0.25 h, 2 µM [30] of 96.7% and a remaining at 0.25 h, 2 µM [31] of 98.9%. For the same molecule, the remaining at 1 h, 2 µM [32] was 86.8%, the Activity [33] was “Active” and the Activity [34] was “Active”. It also gave a Papp A→B at 1 h [35] of 4.27 ×10⁻⁶ cm/s, an IC50 at 72 h [36] of 31 µM and an IC50 [37] of 3.3 µM. The remaining at 0.25 h, 2 µM [38] was 93.9%, the Activity [39] was 94.2% and the recovery at 2 h [40] was 65.2%. The remaining at 0.5 h, 2 µM [41] was 88.1%, the IC50 [42] was 6.2 µM and the Activity [43] was “Active”. For the same molecule, the efflux ratio at 2 h [44] was 1.47, the Activity [45] was 1.9% and the remaining at 2 h, 2 µM [46] was 89.6%.
